Assay results: US20190119298A1, “FUSED 3-PHENYLTETRAMIC ACID DERIVATIVES HAVING HERBICIDAL ACTION” (Bayer CropScience Aktiengesellschaft, priority 2016, published 2019)

How the values were obtained:
Type in all cases: in vivo
[1] = tested on: Echinochloa crus-galli; experiment: Pre-emergence herbicidal effect; conditions: 320 g/ha, scored visually after 3 weeks vs untreated controls, 100% = plants have died
In short: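 Wettable powder or emulsion concentrate sprayed onto soil covering freshly sown seeds in sandy loam, 600 to 800 L/ha water with 0.2% wetting agent. Pots kept in greenhouse. Damage scored visually after 3 weeks against untreated controls, 0-100% activity.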

[2] = tested on: Avena fatua; experiment: Post-emergence herbicidal effect; conditions: one-leaf stage, 320 g/ha, assessed visually after about 3 weeks, 100% = plants have died
In short: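 Greenhouse-grown plants in sandy loam treated at one-leaf stage, 2–3 weeks after sowing, by spraying WP or EC formulations as aqueous suspension/emulsion at 600–800 L/ha water with 0.2% wetting agent. After about 3 weeks, effect scored visually versus untreated controls (0% = like control, 100% = plants dead).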

[3] = tested on: Echinochloa crus-galli; experiment: Post-emergence herbicidal effect; conditions: one-leaf stage, 320 g/ha, assessed visually after about 3 weeks, 100% = plants have died
In short: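 Greenhouse plants in sandy loam were sprayed at the one-leaf stage with WP or EC formulations at 600 to 800 L/ha water with 0.2% wetting agent. After about 3 weeks, damage was scored visually in % against untreated controls (100% = dead).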

[4] = tested on: Setaria viridis; experiment: Post-emergence herbicidal effect; conditions: one-leaf stage, 320 g/ha, assessed visually after about 3 weeks, 100% = plants have died
In short: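 Greenhouse plants grown in sandy loam were sprayed at the one-leaf stage, 2-3 weeks after sowing. Compounds were applied as WP or EC formulations in 600-800 L/ha water plus 0.2% wetting agent. About 3 weeks later, damage was scored visually against untreated controls (0% = like control, 100% = dead plants).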

[5] = tested on: Lolium multiflorum; experiment: Post-emergence herbicidal effect; conditions: one-leaf stage, 320 g/ha, assessed visually after about 3 weeks, 100% = plants have died
Description: (§1) LOLMU: Lolium multiflorum Seeds of monocotyledonous and dicotyledonous weed and crop plants are laid out in sandy loam soil in wood-fibre pots, covered with soil and cultivated in a greenhouse under good growth conditions. 2 to 3 weeks after sowing, the test plants are treated at the one-leaf stage. The compounds of the invention, formulated in the form of wettable powders (WP) or as emulsion concentrates (EC), are then sprayed onto the green parts of the plants as aqueous suspension or emulsion at a water application rate equating to 600 to 800 L/ha with addition of 0.2% wetting agent. After the test plants have been left to stand in the greenhouse under optimal growth conditions for about 3 weeks, the action of the preparations is assessed visually in comparison to untreated controls (herbicidal action in percent (%): 100% activity=the plants have died, 0% activity=like control plants).

[6] = tested on: Lolium multiflorum; experiment: Pre-emergence herbicidal effect; conditions: 320 g/ha, scored visually after 3 weeks vs untreated controls, 100% = plants have died
In short: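 Seeds sown in sandy loam and covered; compounds as WP or EC applied to the soil surface pre-emergence at 600 to 800 L/ha water with 0.2% wetting agent. Greenhouse growth for 3 weeks, then damage scored visually versus untreated controls (100% = plants dead, 0% = like control).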

[7] = tested on: Alopecurus myosuroides; experiment: Pre-emergence herbicidal effect; conditions: 320 g/ha, scored visually after 3 weeks vs untreated controls, 100% = plants have died
In short: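 Seeds sown in sandy loam and covered; WP- or EC-formulated compounds sprayed onto covering soil at 600–800 L/ha water with 0.2% wetting agent. Greenhouse-grown; damage scored visually after 3 weeks versus untreated controls (100% = plants died, 0% = like control).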

[8] = tested on: Avena fatua; experiment: Pre-emergence herbicidal effect; conditions: 320 g/ha, scored visually after 3 weeks vs untreated controls, 100% = plants have died
In short: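 Weed and crop seeds sown in sandy loam were treated pre-emergence on the soil surface with WP or EC formulations at a water rate of 600 to 800 L/ha plus 0.2% wetting agent. Plants grown in a greenhouse; damage scored visually after 3 weeks as percent activity relative to untreated controls (100% = dead).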

[9] = tested on: Alopecurus myosuroides; experiment: Post-emergence herbicidal effect; conditions: one-leaf stage, 320 g/ha, assessed visually after about 3 weeks, 100% = plants have died
Description: as §1, with “ALOMY: Alopecurus myosuroides” for “LOLMU: Lolium multiflorum”

[10] = tested on: Setaria viridis; experiment: Pre-emergence herbicidal effect; conditions: 320 g/ha, scored visually after 3 weeks vs untreated controls, 100% = plants have died
In short: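 Pre-emergence: WP or EC formulations sprayed onto the soil surface over sown seeds in sandy loam at 600–800 L/ha water with 0.2% wetting agent. Plants kept in a greenhouse; damage scored visually after 3 weeks as % activity versus untreated controls (100% = dead).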

CCc1cccc(C)c1C1=C(O)C2CCOCCN2C1=O (centres unmarked) [Ia-1-4]
Pre-emergence action ECHCG (herbicidal activity in percent) [1]: 100%
Post-emergence effectiveness AVEFA (herbicidal action in percent) [2]: 100%
Post-emergence effectiveness ECHCG (herbicidal action in percent) [3]: 100%
Post-emergence effectiveness SETVI (herbicidal action in percent) [4]: 100%
Post-emergence effectiveness LOLMU (herbicidal action in percent) [5]: 100%
Pre-emergence action LOLMU (herbicidal activity in percent) [6]: 100%
Pre-emergence action ALOMY (herbicidal activity in percent) [7]: 80%
Pre-emergence action AVEFA (herbicidal activity in percent) [8]: 100%
Post-emergence effectiveness ALOMY (herbicidal action in percent) [9]: 100%
Pre-emergence action SETVI (herbicidal activity in percent) [10]: 100%

CCOC(=O)OC1=C(c2c(CC)cc(C)cc2CC)C(=O)N2CCOCCC12 (centres unmarked) [Ib-1-2]
Pre-emergence action ECHCG (herbicidal activity in percent) [1]: 100%
Post-emergence effectiveness AVEFA (herbicidal action in percent) [2]: 100%
Post-emergence effectiveness ECHCG (herbicidal action in percent) [3]: 100%
Post-emergence effectiveness SETVI (herbicidal action in percent) [4]: 100%
Post-emergence effectiveness LOLMU (herbicidal action in percent) [5]: 100%
Pre-emergence action LOLMU (herbicidal activity in percent) [6]: 100%
Pre-emergence action ALOMY (herbicidal activity in percent) [7]: 100%
Pre-emergence action AVEFA (herbicidal activity in percent) [8]: 100%
Post-emergence effectiveness ALOMY (herbicidal action in percent) [9]: 100%
Pre-emergence action SETVI (herbicidal activity in percent) [10]: 100%

CCc1cc(C)cc(C)c1C1=C(O)C2CCOCCN2C1=O (centres unmarked) [Ia-1-2]
Pre-emergence action ECHCG (herbicidal activity in percent) [1]: 100%
Post-emergence effectiveness AVEFA (herbicidal action in percent) [2]: 100%
Post-emergence effectiveness ECHCG (herbicidal action in percent) [3]: 100%
Post-emergence effectiveness SETVI (herbicidal action in percent) [4]: 100%
Post-emergence effectiveness LOLMU (herbicidal action in percent) [5]: 100%
Pre-emergence action LOLMU (herbicidal activity in percent) [6]: 100%
Pre-emergence action ALOMY (herbicidal activity in percent) [7]: 100%
Pre-emergence action AVEFA (herbicidal activity in percent) [8]: 100%
Post-emergence effectiveness ALOMY (herbicidal action in percent) [9]: 100%
Pre-emergence action SETVI (herbicidal activity in percent) [10]: 100%

CCOC(=O)OC1=C(c2c(C)cc(C)cc2C)C(=O)N2CCOCCC12 (centres unmarked) [Ib-1-10]
Pre-emergence action ECHCG (herbicidal activity in percent) [1]: 100%
Post-emergence effectiveness AVEFA (herbicidal action in percent) [2]: 100%
Post-emergence effectiveness ECHCG (herbicidal action in percent) [3]: 100%
Post-emergence effectiveness SETVI (herbicidal action in percent) [4]: 100%
Post-emergence effectiveness LOLMU (herbicidal action in percent) [5]: 100%
Pre-emergence action LOLMU (herbicidal activity in percent) [6]: 100%
Pre-emergence action ALOMY (herbicidal activity in percent) [7]: 80%
Pre-emergence action AVEFA (herbicidal activity in percent) [8]: 90%
Post-emergence effectiveness ALOMY (herbicidal action in percent) [9]: 100%
Pre-emergence action SETVI (herbicidal activity in percent) [10]: 100%

CCc1cc(C)cc(C)c1C1=C(OC(=O)C(C)(C)C)C2CCOCCN2C1=O (centres unmarked) [Ib-1-8]
Pre-emergence action ECHCG (herbicidal activity in percent) [1]: 100%
Post-emergence effectiveness AVEFA (herbicidal action in percent) [2]: 100%
Post-emergence effectiveness ECHCG (herbicidal action in percent) [3]: 100%
Post-emergence effectiveness SETVI (herbicidal action in percent) [4]: 100%
Post-emergence effectiveness LOLMU (herbicidal action in percent) [5]: 100%
Pre-emergence action LOLMU (herbicidal activity in percent) [6]: 100%
Pre-emergence action ALOMY (herbicidal activity in percent) [7]: 100%
Pre-emergence action AVEFA (herbicidal activity in percent) [8]: 100%
Post-emergence effectiveness ALOMY (herbicidal action in percent) [9]: 100%
Pre-emergence action SETVI (herbicidal activity in percent) [10]: 100%

CCc1cc(C)cc(CC)c1C1=C(O)C2COCCCN2C1=O (racemic) [Ia-2-2]
Pre-emergence action ECHCG (herbicidal activity in percent) [1]: 100%
Post-emergence effectiveness AVEFA (herbicidal action in percent) [2]: 100%
Post-emergence effectiveness ECHCG (herbicidal action in percent) [3]: 100%
Post-emergence effectiveness SETVI (herbicidal action in percent) [4]: 100%
Post-emergence effectiveness LOLMU (herbicidal action in percent) [5]: 100%
Pre-emergence action LOLMU (herbicidal activity in percent) [6]: 100%
Pre-emergence action ALOMY (herbicidal activity in percent) [7]: 80%
Pre-emergence action AVEFA (herbicidal activity in percent) [8]: 90%
Post-emergence effectiveness ALOMY (herbicidal action in percent) [9]: 100%
Pre-emergence action SETVI (herbicidal activity in percent) [10]: 100%

CCc1cc(Cl)cc(OC)c1C1=C(OC(=O)C(C)(C)C)C2CCOCCN2C1=O (centres unmarked) [Ib-1-18]
Pre-emergence action ECHCG (herbicidal activity in percent) [1]: 100%
Post-emergence effectiveness AVEFA (herbicidal action in percent) [2]: 100%
Post-emergence effectiveness ECHCG (herbicidal action in percent) [3]: 100%
Post-emergence effectiveness SETVI (herbicidal action in percent) [4]: 100%
Post-emergence effectiveness LOLMU (herbicidal action in percent) [5]: 100%
Pre-emergence action LOLMU (herbicidal activity in percent) [6]: 100%
Pre-emergence action ALOMY (herbicidal activity in percent) [7]: 100%
Pre-emergence action AVEFA (herbicidal activity in percent) [8]: 100%
Post-emergence effectiveness ALOMY (herbicidal action in percent) [9]: 100%
Pre-emergence action SETVI (herbicidal activity in percent) [10]: 100%

CCc1cc(Cl)cc(OC)c1C1=C(OC(=O)OC)C2CCOCCN2C1=O (centres unmarked) [Ib-1-16]
Pre-emergence action ECHCG (herbicidal activity in percent) [1]: 100%
Post-emergence effectiveness AVEFA (herbicidal action in percent) [2]: 100%
Post-emergence effectiveness ECHCG (herbicidal action in percent) [3]: 100%
Post-emergence effectiveness SETVI (herbicidal action in percent) [4]: 100%
Post-emergence effectiveness LOLMU (herbicidal action in percent) [5]: 100%
Pre-emergence action LOLMU (herbicidal activity in percent) [6]: 100%
Pre-emergence action ALOMY (herbicidal activity in percent) [7]: 100%
Pre-emergence action AVEFA (herbicidal activity in percent) [8]: 100%
Post-emergence effectiveness ALOMY (herbicidal action in percent) [9]: 100%
Pre-emergence action SETVI (herbicidal activity in percent) [10]: 100%

Cc1cc(C)c(C2=C(OC(=O)C(C)(C)C)C3CCOCCN3C2=O)c(C)c1 (centres unmarked) [Ib-1-11]
Pre-emergence action ECHCG (herbicidal activity in percent) [1]: 100%
Post-emergence effectiveness AVEFA (herbicidal action in percent) [2]: 100%
Post-emergence effectiveness ECHCG (herbicidal action in percent) [3]: 100%
Post-emergence effectiveness SETVI (herbicidal action in percent) [4]: 100%
Post-emergence effectiveness LOLMU (herbicidal action in percent) [5]: 100%
Pre-emergence action LOLMU (herbicidal activity in percent) [6]: 100%
Pre-emergence action ALOMY (herbicidal activity in percent) [7]: 90%
Pre-emergence action AVEFA (herbicidal activity in percent) [8]: 90%
Post-emergence effectiveness ALOMY (herbicidal action in percent) [9]: 100%
Pre-emergence action SETVI (herbicidal activity in percent) [10]: 100%

CCc1cc(C)cc(CC)c1C1=C(O)C2CCOCCN2C1=O (centres unmarked) [Example Ia-1-3, 8-(2,6-Diethyl-4-methylphenyl)-9-hydroxy-1,4,5,9a-tetrahydropyrrolo[1,2-d][1,4]oxazepin-7(2H)-one]
Pre-emergence action ECHCG (herbicidal activity in percent) [1]: 100%
Post-emergence effectiveness AVEFA (herbicidal action in percent) [2]: 100%
Post-emergence effectiveness ECHCG (herbicidal action in percent) [3]: 100%
Post-emergence effectiveness SETVI (herbicidal action in percent) [4]: 100%
Post-emergence effectiveness LOLMU (herbicidal action in percent) [5]: 100%
Pre-emergence action LOLMU (herbicidal activity in percent) [6]: 100%
Pre-emergence action ALOMY (herbicidal activity in percent) [7]: 100%
Pre-emergence action AVEFA (herbicidal activity in percent) [8]: 100%
Post-emergence effectiveness ALOMY (herbicidal action in percent) [9]: 100%
Pre-emergence action SETVI (herbicidal activity in percent) [10]: 100%

CCc1cc(Cl)cc(OC)c1C1=C(O)C2=CCOCCN2C1=O [Ia-3-4]
Pre-emergence action ECHCG (herbicidal activity in percent) [1]: 90%
Post-emergence effectiveness AVEFA (herbicidal action in percent) [2]: 100%
Post-emergence effectiveness ECHCG (herbicidal action in percent) [3]: 100%
Post-emergence effectiveness SETVI (herbicidal action in percent) [4]: 100%
Post-emergence effectiveness LOLMU (herbicidal action in percent) [5]: 100%
Pre-emergence action LOLMU (herbicidal activity in percent) [6]: 90%
Pre-emergence action ALOMY (herbicidal activity in percent) [7]: 80%
Pre-emergence action AVEFA (herbicidal activity in percent) [8]: 80%
Post-emergence effectiveness ALOMY (herbicidal action in percent) [9]: 100%
Pre-emergence action SETVI (herbicidal activity in percent) [10]: 100%
